Experimental data reported in ChEMBL document CHEMBL5154829, “Discovery and biological evaluation of tanshinone derivatives as potent dual inhibitors of indoleamine 2, 3-dioxygenase 1 and tryptophan 2, 3-dioxygenase” (Eur J Med Chem, 2022).
Each block holds one compound with its values, some of them ahead of it. The source made the active and inactive calls. No cut-off for these calls is given here.

Assays:
[1] = target: T1, Indoleamine 2,3-dioxygenase 1 (Homo sapiens, UniProt P14902); experiment: Inhibition of recombinant human IDO1 assessed as reduction in N-formylkynurenine formation using L-tryptophan as substrate and measured after 15 mins
Target sequence in this assay (P14902 whole entry): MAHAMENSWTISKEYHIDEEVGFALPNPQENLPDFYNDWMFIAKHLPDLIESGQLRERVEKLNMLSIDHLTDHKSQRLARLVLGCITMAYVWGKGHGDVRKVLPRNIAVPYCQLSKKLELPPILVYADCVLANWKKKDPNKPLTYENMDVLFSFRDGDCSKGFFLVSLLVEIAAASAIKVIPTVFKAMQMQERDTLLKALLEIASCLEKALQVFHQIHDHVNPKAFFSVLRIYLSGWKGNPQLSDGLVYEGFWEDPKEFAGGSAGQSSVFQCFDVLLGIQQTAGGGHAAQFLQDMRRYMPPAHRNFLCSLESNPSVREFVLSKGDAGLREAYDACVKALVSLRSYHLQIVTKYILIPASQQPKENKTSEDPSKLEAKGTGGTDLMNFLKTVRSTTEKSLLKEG

[2] = target: T2, Tryptophan 2,3-dioxygenase (Homo sapiens, UniProt P48775); experiment: Inhibition of recombinant human TDO assessed as reduction in N-formylkynurenine formation using L-tryptophan as substrate and measured after 15 mins
Target sequence in this assay (P48775 whole entry): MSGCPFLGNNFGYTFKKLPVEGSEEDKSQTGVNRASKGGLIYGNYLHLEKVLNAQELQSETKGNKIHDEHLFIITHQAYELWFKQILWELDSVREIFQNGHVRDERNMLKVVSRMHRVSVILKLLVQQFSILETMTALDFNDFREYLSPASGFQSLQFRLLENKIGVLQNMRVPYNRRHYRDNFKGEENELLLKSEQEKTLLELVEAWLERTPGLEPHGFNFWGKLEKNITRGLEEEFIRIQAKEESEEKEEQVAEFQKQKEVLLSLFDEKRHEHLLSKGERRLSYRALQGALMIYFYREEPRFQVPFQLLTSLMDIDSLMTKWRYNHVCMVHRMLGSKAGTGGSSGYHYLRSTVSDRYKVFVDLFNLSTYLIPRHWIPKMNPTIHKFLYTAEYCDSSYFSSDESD

[3] = target: T1, Indoleamine 2,3-dioxygenase 1; experiment: Inhibition of IDO1 in IFNgamma-stimulated human HeLa cells assessed as reduction in kynurenine formation using L-tryptophan as substrate by absorbance based analysis; type: cell-based
Target sequence in this assay (P14902 whole entry): as the sequence (P14902 whole entry) above

[4] = target: T2, Tryptophan 2,3-dioxygenase; experiment: Inhibition of TDO in human HEK293 cells assessed as reduction in kynurenine formation using L-tryptophan as substrate by absorbance based analysis; type: cell-based
Target sequence in this assay (P48775 whole entry): as the sequence (P48775 whole entry) above

[5] = target: T1, Indoleamine 2,3-dioxygenase 1; experiment: Non-competitive inhibition of recombinant human IDO1 measured by surface plasmon resonance assay
Target sequence in this assay (P14902 whole entry): as the sequence (P14902 whole entry) above

[6] = target: T2, Tryptophan 2,3-dioxygenase; experiment: Competitive inhibition of recombinant human TDO measured by surface plasmon resonance assay
Target sequence in this assay (P48775 whole entry): as the sequence (P48775 whole entry) above

[7] = target: T1, Indoleamine 2,3-dioxygenase 1; experiment: Non-competitive inhibition of recombinant human IDO1 measured by UV/visible spectrophotometric method
Target sequence in this assay (P14902 whole entry, looked up): as the sequence (P14902 whole entry) above

[8] = target: T2, Tryptophan 2,3-dioxygenase; experiment: Competitive inhibition of recombinant human TDO measured by UV/visible spectrophotometric method
Target sequence in this assay (P48775 whole entry, looked up): as the sequence (P48775 whole entry) above

HeLa [9] = experiment: Induction of apoptosis in human HeLa cells assessed apoptotic cells at 10 uM measured after 24 hrs by Annexin V-FITC/PI based flow cytometry analysis; type: functional
HeLa [10] = experiment: Induction of apoptosis in human HeLa cells assessed apoptotic cells at 5 uM measured after 6 hrs by Annexin V-FITC/PI based flow cytometry analysis; type: functional, cell-based
HeLa [11] = experiment: Induction of apoptosis in human HeLa cells assessed apoptotic cells at 5 uM measured after 12 hrs by Annexin V-FITC/PI based flow cytometry analysis; type: functional
HeLa [12] = experiment: Induction of apoptosis in IFNgamma-stimulated human HeLa cells assessed apoptotic cells at 5 uM measured after 12 hrs by Annexin V-FITC/PI based flow cytometry analysis; type: functional
HeLa [13] = experiment: Induction of apoptosis in human HeLa cells assessed as decrease in Bcl-2 expression at 1 to 10 uM measured by western blot analysis; type: functional, cell-based; conditions: dose 1-10 µM
HeLa [14] = experiment: Induction of apoptosis in human HeLa cells assessed as increase in Bax expression at 1 to 10 uM measured by western blot analysis; type: functional, cell-based; conditions: dose 1-10 µM
HeLa [15] = experiment: Induction of apoptosis in human HeLa cells assessed as increase in Bax/Bcl-2 ratio at 1 to 10 uM measured by western blot analysis; type: functional, cell-based; conditions: dose 1-10 µM
[16] = Hemolytic activity in rat RBC at 500 uM incubated for 30 mins; type: toxicity, cell-based, Erythrocyte; conditions: rat red blood cells (erythrocytes), read-out: Activity
[17] = Cytotoxicity against human HEK-293T cells; type: toxicity, cell-based

SMILES: CC1(C)C(=O)C=Cc2c1ccc1c2C(=O)C(=O)c2c(C=O)coc2-1
- IC50 [1]: > 10000 nM
- IC50 [2]: > 10000 nM

SMILES: NS(=O)(=O)NCCNc1nonc1C(=NO)Nc1ccc(F)c(Br)c1 [EPACADOSTAT]
- IC50 [2]: 16100 nM
- IC50 [4]: 10400 nM

SMILES: C[C@H]1COC2=C1C(=O)C(=O)c1c2ccc2c1CCCC2(C)C [CRYPTOTANSHINONE]
- IC50 [1]: 10000 nM
- IC50 [2]: 9800 nM

SMILES: CC(=O)OCc1coc2c1C(=O)C(=O)c1c-2ccc2c1C=CC(=O)C2(C)C
- IC50 [1]: 70 nM
- IC50 [2]: 160 nM
- IC50 [3]: 270 nM
- IC50 [4]: 1870 nM
- Ki [5]: 230 nM
- Ki [6]: 730 nM
- inhibition [7]: Active
- inhibition [8]: Active
- Activity (HeLa [9]): 92.8%
- Activity (HeLa [10]): Active
- Activity (HeLa [11]): 39.9%
- Activity (HeLa [12]): 68.6%
- Activity (HeLa [13]): Active
- Activity (HeLa [14]): Active
- Activity (HeLa [15]): Active
- hemolysis at 0.5 h, 500 µM [16]: 10%
- IC50 [17]: > 10 µM

SMILES: CC1(C)C(=O)C=Cc2c1ccc1c2C(=O)C(=O)c2c(C(=O)O)coc2-1
- IC50 [1]: 4570 nM
- IC50 [2]: > 10000 nM
- IC50 [3]: 8550 nM
- IC50 [4]: > 10000 nM

SMILES: CCN(CC)C(=O)c1coc2c1C(=O)C(=O)c1c-2ccc2c1C=CC(=O)C2(C)C
- IC50 [1]: 3270 nM
- IC50 [2]: 9540 nM
- IC50 [3]: > 10000 nM
- IC50 [4]: > 10000 nM

SMILES: C[C@@H](CO)C1=C(O)C(=O)c2c(ccc3c2CCCC3(C)C)C1=O
- IC50 [1]: > 10000 nM
- IC50 [2]: > 10000 nM

SMILES: Cc1c(Br)oc2c1C(=O)C(=O)c1c-2ccc2c1CCCC2(C)C
- IC50 [1]: > 10000 nM
- IC50 [2]: > 10000 nM

SMILES: CC1(C)C(=O)C=Cc2c1ccc1c2C(=O)C(=O)c2c(CF)coc2-1
- IC50 [1]: 420 nM
- IC50 [2]: 570 nM
- IC50 [3]: 650 nM
- IC50 [4]: 730 nM

SMILES: CC1(C)C(=O)C=Cc2c1ccc1c2C(=O)C(=O)c2c(CO)coc2-1
- IC50 [1]: 220 nM
- IC50 [2]: 450 nM
- IC50 [3]: 2560 nM
- IC50 [4]: 1420 nM

SMILES: CC1(C)C(=O)C=Cc2c1ccc1c2C(=O)C(=O)c2c(CCl)coc2-1
- IC50 [1]: 140 nM
- IC50 [2]: 110 nM
- IC50 [3]: 680 nM
- IC50 [4]: 340 nM

SMILES: Cc1c[nH]c2c1C(=O)C(=O)c1c-2ccc2c1CCCC2(C)C
- IC50 [1]: > 10000 nM
- IC50 [2]: > 10000 nM

SMILES: C[C@@H](C=O)C1=C(O)C(=O)c2c(ccc3c2CCCC3(C)C)C1=O
- IC50 [1]: > 10000 nM
- IC50 [2]: > 10000 nM

SMILES: COC(=O)c1coc2c1C(=O)C(=O)c1c-2ccc2c1C=CC(=O)C2(C)C
- IC50 [1]: > 10000 nM
- IC50 [2]: > 10000 nM

SMILES: Cc1coc2c1c(=O)oc(=O)c1c3c(ccc12)C(C)(C)CCC3
- IC50 [1]: > 10000 nM
- IC50 [2]: > 10000 nM

SMILES: CC(=O)Oc1c(OC(C)=O)c2c(C)coc2c2ccc3c(c12)CCCC3(C)C
- IC50 [1]: > 10000 nM
- IC50 [2]: > 10000 nM

Further lines, results first:

- IC50 [1]: 1070 nM
- IC50 [2]: 450 nM
- IC50 [3]: > 10000 nM
- IC50 [4]: 7180 nM
SMILES: CC1(C)CCCc2c1ccc1c2C(=O)C(=O)c2c(CO)coc2-1 [PRZEWAQUINONE A]

- IC50 [1]: 670 nM
- IC50 [2]: 2420 nM
- IC50 [3]: 2420 nM
- IC50 [4]: 2060 nM
SMILES: CC(=O)OCc1coc2c1C(=O)C(=O)c1c-2ccc2c1CC[C@H](O)C2(C)C

- IC50 [1]: 590 nM
- IC50 [2]: 1010 nM
- IC50 [3]: 1670 nM
- IC50 [4]: 950 nM
SMILES: CC1(C)c2ccc3c(c2CC[C@@H]1O)C(=O)C(=O)c1c(CO)coc1-3

- IC50 [1]: > 10000 nM
- IC50 [2]: > 10000 nM
SMILES: Cc1coc2c1C(=O)C(=O)c1c-2ccc2c1C=CCC2(C)C

- IC50 [1]: 5120 nM
- IC50 [2]: 2700 nM
- IC50 [3]: > 10000 nM
- IC50 [4]: > 10000 nM
SMILES: Cc1coc2c1C(=O)C(=O)c1c-2ccc2c1CC[C@H](O)C2(C)C

- IC50 [1]: 810 nM
- IC50 [2]: 1210 nM
- IC50 [3]: 5100 nM
- IC50 [4]: > 10000 nM
SMILES: Cc1coc2c1C(=O)C(=O)c1c-2ccc2c1CC[C@H](OS(C)(=O)=O)C2(C)C

- IC50 [1]: > 10000 nM
- IC50 [2]: > 10000 nM
SMILES: Cc1coc2c1C(=O)C(=O)c1c-2ccc2c1CCCC2(C)C [TANSHINONE IIA]

- IC50 [1]: 1500 nM
- IC50 [2]: 710 nM
- IC50 [3]: > 10000 nM
- IC50 [4]: 8100 nM
SMILES: Cc1coc2c1C(=O)C(=O)c1c-2ccc2c1C(Br)CCC2(C)C (configuration not stated)

- IC50 [1]: 490 nM
- IC50 [2]: 1480 nM
- IC50 [3]: > 10000 nM
- IC50 [4]: > 10000 nM
SMILES: Cc1coc2c1C(=O)C(=O)c1c-2ccc2c1C(=O)C(O)CC2(C)C (configuration not stated)

- IC50 [1]: 1730 nM
- IC50 [2]: 670 nM
- IC50 [3]: 810 nM
- IC50 [4]: 860 nM
SMILES: CC(=O)OCc1coc2c1C(=O)C(=O)c1c-2ccc2c1CCC(=O)C2(C)C

- IC50 [1]: 360 nM
- IC50 [2]: 940 nM
- IC50 [3]: > 10000 nM
- IC50 [4]: > 10000 nM
SMILES: Cc1coc2c1C(=O)C(=O)c1c-2ccc2c1CCC(=O)C2(C)C

- IC50 [1]: 750 nM
- IC50 [2]: 1840 nM
- IC50 [3]: 1870 nM
- IC50 [4]: 1910 nM
SMILES: CC(=O)O[C@H]1CCc2c(ccc3c2C(=O)C(=O)c2c(CO)coc2-3)C1(C)C

- IC50 [1]: 980 nM
- IC50 [2]: 960 nM
- IC50 [3]: 9330 nM
- IC50 [4]: > 10000 nM
SMILES: Cc1coc2c1C(=O)C(=O)c1c-2ccc2c1C=CC(=O)C2(C)C

- IC50 [1]: 400 nM
- IC50 [2]: 370 nM
- IC50 [3]: > 10000 nM
- IC50 [4]: 2800 nM
SMILES: CC(=O)O[C@H]1CCc2c(ccc3c2C(=O)C(=O)c2c(C)coc2-3)C1(C)C

- IC50 [1]: 2880 nM
- IC50 [2]: 1010 nM
- IC50 [3]: > 10000 nM
- IC50 [4]: > 10000 nM
SMILES: Cc1coc2c1C(=O)C(=O)c1c-2ccc2c1C(=O)C(O)=CC2(C)C

- IC50 [1]: 160 nM
- IC50 [2]: 200 nM
- IC50 [3]: 450 nM
- IC50 [4]: 3130 nM
SMILES: CC1(C)C(=O)CCc2c1ccc1c2C(=O)C(=O)c2c(CO)coc2-1
